US11844847B2, “Sulfur-containing polymerizable monomer and use thereof” (SUN MEDICAL CO., LTD., priority 2018, dated 2023)

Test: Solubility evaluation: solution stirred 0.5 hours, visually inspected for insolubles
Type: physicochemical
Procedure: Solutions were obtained by adding the sulfur-containing compound of the amount described in Table 1 or Table 1a to the amount described in Table 1 or Table 1a of the organic solvent or the radically polymerizable monomer.
The solutions obtained were stirred with a magnetic stirrer for 0.5 hours and were then visually inspected for the presence of insolubles. The solutions were evaluated as ◯ when the solution was transparent and free from insolubles, as Δ when the solution was turbid but free from insolubles, and as x when insolubles were present. The solubility evaluations in Tables 3 to 6 are also based on the same criteria.

[1] = 2.6 parts sulfur-containing compound in 97.4 parts IPA
[2] = 2.6 parts sulfur-containing compound in 97.4 parts MMA
[3] = 2.6 parts sulfur-containing compound in 97.4 parts acetone
[4] = 0.65 parts sulfur-containing compound in 99.35 parts IPA
[5] = 20 parts sulfur-containing compound in 80 parts acetone
[6] = added to acetone at a concentration of 20 mass %

| Solubility [1] | Solubility [2] | Solubility [3] | Solubility [5] | Compound | further results |
| --- | --- | --- | --- | --- | --- |
| ∘ | ∘ | ∘ | – | C=C(C)C(=O)OCCOC(=O)CCC1NC(=S)NC1=O (stereo not drawn) [2-THPEM, 2-((3-(5-oxo-2-thioxoimidazolidin-4-yl)propanoyl)oxy)ethyl methacrylate] | – |
| ∘ | ∘ | ∘ | – | C=C(C)C(=O)OCCCCOC(=O)CCC1NC(=S)NC1=O (stereo not drawn) [4-THPBM, 4-((3-(5-oxo-2-thioxoimidazolidin-4-yl)propanoyl)oxy)butyl methacrylate] | – |
| ∘ | ∘ | ∘ | – | C=C(C)C(=O)OCCCCCCOC(=O)CCC1NC(=S)NC1=O (stereo not drawn) [6-THPHM, 6-((3-(5-oxo-2-thioxoimidazolidin-4-yl)propanoyl)oxy)hexyl methacrylate] | – |
| ∘ | ∘ | ∘ | ∘ | C=C(C)C(=O)OCCCCCCCCCCOC(=O)CCC1NC(=S)NC1=O (stereo not drawn) [10-THPDM, 10-((3-(5-oxo-2-thioxoimidazolidin-4-yl)propanoyl)oxy)decyl methacrylate] | Solubility [4]: ∘; Solubility (0.65 parts sulfur-containing compound in 99.35 parts MMA): ∘; Solubility (0.65 parts sulfur-containing compound in 99.35 parts acetone): ∘; solubility (in words) [6]: dissolved completely |
| – | – | ∘ | – | C=Cc1ccc(CN(CCC)c2nc(=S)[nH]c(=S)[nH]2)cc1 [VBATDT, 6-(4-Vinylbenzyl-n-propyl)amino-1,3,5-triazine-2,4-dithione, reference compound] | Solubility (0.5 parts sulfur-containing compound in 99.5 parts acetone): ∘; solubility (in words) [6]: generated insolubles; solubility (in words) (with respect to IPA and MMA): low solubility |
| ∘ | ∘ | – | ∘ | C=C(C)C(=O)OCCCCCCC1NC(=S)NC1=O (stereo not drawn) [a20, 6-(5-oxo-2-thioxoimidazolidin-4-yl)hexyl methacrylate] | – |
| – | ∘ | – | – | C=C(C)C(=O)OCCCCCC=C1NC(=S)NC1=O [a21, 6-(5-oxo-2-thioxoimidazolidin-4-ylidene)hexyl methacrylate] | Solubility [4]: ∘; Solubility (10 parts sulfur-containing compound in 90 parts acetone): ∘ |
| ∘ | ∘ | – | ∘ | C=C(C)C(=O)OCCCCCCCC=C1NC(=S)NC1=O [a23, 8-(5-oxo-2-thioxoimidazolidin-4-ylidene)octyl methacrylate] | – |
| ∘ | ∘ | – | ∘ | C=C(C)C(=O)OCCCCCCCCCCC1NC(=S)NC1=O (stereo not drawn) [a24, 10-(5-oxo-2-thioxoimidazolidin-4-yl)decyl methacrylate] | – |
| ∘ | ∘ | – | ∘ | C=C(C)C(=O)OCCCCCCCCCC=C1NC(=S)NC1=O [a25, 10-(5-oxo-2-thioxoimidazolidin-4-ylidene)decyl methacrylate] | – |
